# Experimental data: patent publication US11666558B2, “Methods of treating intraocular pressure with activators of Tie-2” (EyePoint Pharmaceuticals, Inc., priority 2015, dated 2023)
# Several values for one entry are separate records, joined by “and”; a condition that tells them apart may be missing. Identical values can stand only once. Counter-ions that a name gives are not always drawn.
# Experiments:
# [1] = system: intraocular pressure; test: Intraocular pressure (pneumotonometer) after repeated topical and subcutaneous administration in normotensive rabbits; type: in vivo, New Zealand White rabbits
# Method: To measure the tolerability and effect of Compound 1 (sodium salt) on intraocular pressure following repeated topical and subcutaneous administration, normotensive New Zealand White rabbits were treated with Compound 1 (sodium salt). Animals were acclimated 1 to 2 times per day to the intraocular pressure (IOP) measurement procedures prior to initiation of the study to determine baseline IOP levels. IOP acclimation was performed in the two weeks prior to study start for a total of 5 days. Animals with unacceptable IOP values were excluded from the study. Prior to taking all IOP measurements, 1 to 2 drops of a 0.5% proparacaine solution were applied to the eye as a topical anesthetic. OP measurements were performed with a pneumotonometer. Test and control formulations were administered to the animals once or twice daily topically into both eyes or subcutaneously starting on Day 1 according to TABLE 20 and TABLE 21 below. PM dosing, where applicable, was performed ˜8 hours after AM dosing. IOP measurements were performed twice (AM and PM) at baseline (prior to the start of dosing), twice (AM and PM) on Days 1 and 7, and once daily (AM) on Days 2-6 and Day 8. Prior to taking all IOP measurements, 1 to 2 drops of a 0.5% proparacaine solution were applied to the eye as a topical anesthetic. IOP measurements were performed with a pneumotonometer. AM IOP measurements were performed 2 hours after AM dosing; the only exceptions were Day 8 AM measurements, which were performed 24 hours after the final dose. PM IOP measurements were performed ˜5 hours (baseline and Day 1) or ˜4 hours (Day 7) after AM IOP measurements, prior to PM dosing, with at least 15 minutes elapsing between anesthetic application for PM IOP measurements and PM dosing. The final round of slit-lamp examinations was performed on Day 8.
# [2] = Ocular abnormalities in the ocular pharmacokinetics study; type: in vivo, New Zealand White rabbits; details: all dose groups (topical ocular, subcutaneous, intravitreal)
# Method: Pre-screening clinical ophthalmic exams were done prior to study (includes slit-lamp biomicroscopy and indirect ophthalmoscopy). Ocular findings were scored using the McDonald-Shadduck Score System, and only animals that scored zero in all categories were used in the study.
# Concentration versus time data is plotted in FIGS. 3-16. All data are expressed as ng/g of the free drug. Samples that were below the limit of quantitation (0.2 ng/mL) were not used in the calculation of averages.
# [3] = Group 2, 0.45 mg/eye topical BID, Day 1, AM, OS
# [4] = Group 2, 0.45 mg/eye topical BID, Day 1, PM, OD
# [5] = Group 2, 0.45 mg/eye topical BID, Day 2, AM, OD
# [6] = Group 2, 0.45 mg/eye topical BID, Day 2, AM, OS
# [7] = Group 2, 0.45 mg/eye topical BID, Day 3, AM, OD
# [8] = Group 2, 0.45 mg/eye topical BID, Day 3, AM, OS
# [9] = Group 2, 0.45 mg/eye topical BID, Day 4, AM, OD
# [10] = Group 2, 0.45 mg/eye topical BID, Day 4, AM, OS
# [11] = Group 2, 0.45 mg/eye topical BID, Day 5, AM, OD
# [12] = Group 3, 1.2 mg/eye topical BID, Day 1, AM, OD
# [13] = Group 3, 1.2 mg/eye topical BID, Day 1, AM, OS
# [14] = Group 3, 1.2 mg/eye topical BID, Day 1, PM, OD
# [15] = Group 3, 1.2 mg/eye topical BID, Day 2, AM, OS
# [16] = Group 3, 1.2 mg/eye topical BID, Day 3, AM, OD
# [17] = Group 3, 1.2 mg/eye topical BID, Day 3, AM, OS
# [18] = Group 3, 1.2 mg/eye topical BID, Day 4, AM, OD
# [19] = Group 3, 1.2 mg/eye topical BID, Day 4, AM, OS
# [20] = Group 3, 1.2 mg/eye topical BID, Day 5, AM, OS
# [21] = Group 4, 1.2 mg/eye topical QD, Day 1, AM, OD
# [22] = Group 4, 1.2 mg/eye topical QD, Day 2, AM, OD
# [23] = Group 4, 1.2 mg/eye topical QD, Day 5, AM, OD
structure (smiles),measurement,setting,value
COC(=O)N[C@@H](Cc1ccccc1)C(=O)N[C@@H](Cc1ccc(NS(=O)(=O)O)cc1)c1csc(-c2cccs2)n1 [Compound 1 sodium salt],"Intraocular pressure (IOP), individual animal","[1]; Group 2, 0.45 mg/eye topical BID, Day 1, AM, OD",20.3 and 23.7 and 24.0 and 20.7 and 21.7
same,"Intraocular pressure (IOP), group Average",[1]; [3],23.3
same,"Intraocular pressure (IOP), individual animal",[1]; [3],20.7 and 25.2 and 23.3
same,"Intraocular pressure (IOP), group Average",[1]; [4],25.5
same,"Intraocular pressure (IOP), individual animal",[1]; [4],24.8 and 22.0
same,"Intraocular pressure (IOP), individual animal","[1]; Group 2, 0.45 mg/eye topical BID, Day 1, PM, OS",25.3
same,"Intraocular pressure (IOP), group Average",[1]; [5],21.9
same,"Intraocular pressure (IOP), individual animal",[1]; [5],22.0 and 22.7 and 25.0
same,"Intraocular pressure (IOP), group Average",[1]; [6],22.2
same,"Intraocular pressure (IOP), individual animal",[1]; [6],22.3 and 24.3
same,"Intraocular pressure (IOP), group Average",[1]; [7],24.0
same,"Intraocular pressure (IOP), individual animal",[1]; [7],25.0 and 24.2 and 26.0 and 23.8
same,"Intraocular pressure (IOP), group Average",[1]; [8],24.5
same,"Intraocular pressure (IOP), individual animal",[1]; [8],25.3 and 23.5 and 26.0 and 23.0
same,"Intraocular pressure (IOP), group Average",[1]; [9],23.9
same,"Intraocular pressure (IOP), individual animal",[1]; [9],23.8 and 22.0 and 26.7 and 25.7
same,"Intraocular pressure (IOP), group Average",[1]; [10],24.3
same,"Intraocular pressure (IOP), individual animal",[1]; [10],23.0 and 22.7 and 26.3 and 23.5 and 26.2
same,"Intraocular pressure (IOP), group Average",[1]; [11],25.2
same,"Intraocular pressure (IOP), individual animal",[1]; [11],22.8 and 28.0 and 20.7 and 25.7
same,"Intraocular pressure (IOP), individual animal","[1]; Group 2, 0.45 mg/eye topical BID, Day 5, AM, OS",25.0 and 28.0 and 24.2 and 26.3
same,"Intraocular pressure (IOP), group Average","[1]; Group 2, 0.45 mg/eye topical BID, Day 6, AM, OD",25.5
same,"Intraocular pressure (IOP), group Average","[1]; Group 2, 0.45 mg/eye topical BID, Day 7, AM, OD",23.7
same,"Intraocular pressure (IOP), group Average","[1]; Group 2, 0.45 mg/eye topical BID, Day 7, AM, OS",24.5
same,"Intraocular pressure (IOP), group Average",[1]; [12],22.0
same,"Intraocular pressure (IOP), individual animal",[1]; [12],23.2 and 24.0 and 20.2
same,"Intraocular pressure (IOP), group Average",[1]; [13],23.2
same,"Intraocular pressure (IOP), individual animal",[1]; [13],23.8 and 23.0 (2×)
same,"Intraocular pressure (IOP), group Average",[1]; [14],24.1
same,"Intraocular pressure (IOP), individual animal",[1]; [14],24.7 and 25.2
same,"Intraocular pressure (IOP), individual animal","[1]; Group 3, 1.2 mg/eye topical BID, Day 1, PM, OS",24.5 (2×) and 23.7 and 25.0
same,"Intraocular pressure (IOP), individual animal","[1]; Group 3, 1.2 mg/eye topical BID, Day 2, AM, OD",17.5 and 25.5
same,"Intraocular pressure (IOP), group Average",[1]; [15],21.2
same,"Intraocular pressure (IOP), individual animal",[1]; [15],20.2 and 24.0 and 24.5
same,"Intraocular pressure (IOP), group Average",[1]; [16],20.7
same,"Intraocular pressure (IOP), individual animal",[1]; [16],20.0 and 23.0 and 22.2
same,"Intraocular pressure (IOP), group Average",[1]; [17],21.2
same,"Intraocular pressure (IOP), individual animal",[1]; [17],20.0 and 22.7 and 23.0
same,"Intraocular pressure (IOP), group Average",[1]; [18],22.8
same,"Intraocular pressure (IOP), individual animal",[1]; [18],23.2 and 24.8 and 22.2
same,"Intraocular pressure (IOP), group Average",[1]; [19],23.2
same,"Intraocular pressure (IOP), individual animal",[1]; [19],23.3 and 24.2 and 24.5 and 22.3
same,"Intraocular pressure (IOP), individual animal","[1]; Group 3, 1.2 mg/eye topical BID, Day 5, AM, OD",21.5 and 23.7
same,"Intraocular pressure (IOP), group Average",[1]; [20],22.0
same,"Intraocular pressure (IOP), individual animal",[1]; [20],22.3 and 23.5
same,"Intraocular pressure (IOP), group Average","[1]; Group 3, 1.2 mg/eye topical BID, Day 6, AM, OS",24.7
same,"Intraocular pressure (IOP), group Average","[1]; Group 3, 1.2 mg/eye topical BID, Day 7, AM, OS",22.0
same,"Intraocular pressure (IOP), group Average","[1]; Group 3, 1.2 mg/eye topical BID, Day 7, PM, OD",23.7
same,IOP values compared to Group 1 (Vehicle),"[1]; Group 3, 1.2 mg/eye topical BID, over the course of dosing",lower IOP values
same,"Intraocular pressure (IOP), group Average",[1]; [21],21.2
same,"Intraocular pressure (IOP), individual animal",[1]; [21],22.0 and 20.2
same,"Intraocular pressure (IOP), individual animal","[1]; Group 4, 1.2 mg/eye topical QD, Day 1, AM, OS",22.0 and 23.3 and 21.2
same,"Intraocular pressure (IOP), individual animal","[1]; Group 4, 1.2 mg/eye topical QD, Day 1, PM, OD",21.3 and 24.0
same,"Intraocular pressure (IOP), individual animal","[1]; Group 4, 1.2 mg/eye topical QD, Day 1, PM, OS",22.5 and 25.5
same,"Intraocular pressure (IOP), group Average",[1]; [22],20.0
same,"Intraocular pressure (IOP), individual animal",[1]; [22],20.0 and 20.3
same,"Intraocular pressure (IOP), individual animal","[1]; Group 4, 1.2 mg/eye topical QD, Day 2, AM, OS",21.0
same,"Intraocular pressure (IOP), individual animal","[1]; Group 4, 1.2 mg/eye topical QD, Day 3, AM, OD",23.5 and 21.0
same,"Intraocular pressure (IOP), individual animal","[1]; Group 4, 1.2 mg/eye topical QD, Day 3, AM, OS",20.0 and 21.2
same,"Intraocular pressure (IOP), individual animal","[1]; Group 4, 1.2 mg/eye topical QD, Day 4, AM, OD",21.5 and 22.2 and 20.7
same,"Intraocular pressure (IOP), individual animal","[1]; Group 4, 1.2 mg/eye topical QD, Day 4, AM, OS",20.0 and 24.3 and 23.5
same,"Intraocular pressure (IOP), group Average",[1]; [23],21.0
same,"Intraocular pressure (IOP), individual animal",[1]; [23],23.8
same,"Intraocular pressure (IOP), individual animal","[1]; Group 4, 1.2 mg/eye topical QD, Day 5, AM, OS",22.7 and 22.0
same,"Intraocular pressure (IOP), group Average","[1]; Group 4, 1.2 mg/eye topical QD, Day 7, AM, OS",23.0
same,IOP values compared to Group 1 (Vehicle),"[1]; Group 4, 1.2 mg/eye topical QD, over the course of dosing",lower IOP values
same,IOP values compared to Group 1 (Vehicle),"[1]; Group 5, 10 mg/kg subcutaneous BID",Lower IOP values compared to Group 1 were also seen in the early part of the study
same,"Intraocular pressure (IOP), group Average","[1]; Group 5, 10 mg/kg subcutaneous BID, Day 2, AM, OD",21.5
same,"Intraocular pressure (IOP), group Average","[1]; Group 5, 10 mg/kg subcutaneous BID, Day 3, AM, OD",20.7
same,"Intraocular pressure (IOP), group Average","[1]; Group 5, 10 mg/kg subcutaneous BID, Day 3, AM, OS",21.3
same,"Intraocular pressure (IOP), group Average","[1]; Group 5, 10 mg/kg subcutaneous BID, Day 4, AM, OD",21.9
same,"Intraocular pressure (IOP), group Average","[1]; Group 5, 10 mg/kg subcutaneous BID, Day 6, AM, OD",24.5
same,"Intraocular pressure (IOP), group Average","[1]; Group 5, 10 mg/kg subcutaneous BID, Day 6, AM, OS",25.0
same,"Intraocular pressure (IOP), group Average","[1]; Group 5, 10 mg/kg subcutaneous BID, Day 7, AM, OS",23.9
same,"Intraocular pressure (IOP), group Average","[1]; Group 5, 10 mg/kg subcutaneous BID, Day 7, PM, OD",24.1
same,"Intraocular pressure (IOP), group Average","[1]; Group 5, 10 mg/kg subcutaneous BID, Day 8, AM, OS",24.0
same,apparent reduction in intraocular pressure values,"[1]; Groups 3 and 4 (1.2 mg/eye topical BID, QD), Day 7 and Day 8 (24 hours after the end of dosing)",persisted
same,effect on intraocular pressure,"[1]; topically administered, 1.2 mg/eye dose, QD or BID",observed to reduce intraocular pressure
COC(=O)N[C@@H](Cc1ccccc1)C(=O)N[C@@H](Cc1ccc(NS(=O)(=O)O)cc1)c1csc(-c2cccs2)n1 [Compound 1],ocular abnormalities,[2],No ocular abnormalities
